US20220251044A1, “CRYSTAL FORM OF HYPOXIA-INDUCIBLE FACTOR-PROLYL HYDROXYLASE INHIBITOR” (CRYSTAL PHARMACEUTICAL (SUZHOU) CO., LTD., priority 2019, published 2022)
Entries after “also recorded” stand apart in the source; their conditions may differ.

Assays:
Type in all cases: physicochemical
[1] = Pressure stability on tableting (XRPD)
Excerpt: Certain amount of Form CSI was compressed into tablets under different pressures with suitable tableting die. Crystalline forms before and after tableting were checked by XRPD.

Hygroscopicity by DVS = experiment: Hygroscopicity by DVS
Description: Dynamic Vapor Sorption (DVS) was measured via an SMS (Surface Measurement Systems Ltd.) intrinsic DVS instrument. Its control software is DVS-Intrinsic control software. Typical parameters for DVS test are as follows: Temperature: 25° C. Gas and flow rate: N2, 200 mL/min dm/dt: 0.002%/min RH range: 0% RH to 95% RH DVS was applied to test the hygroscopicity of Form CSI and WO2014014835 Form A with about 10 mg of samples. The weight gains at each relative humidity were recorded in a cycle of 0-95%-0 RH. XRPD test was applied before and after DVS. Description and definition of hygroscopicity (general notice 9103 drug hygroscopicity test guidelines in 2015 edition of Chinese Pharmacopoeia, test at 25° C.±1° C., 80% RH. The definition of hygroscopicity in the 9th European Pharmacopoeia 5.11 is similar to the Chinese Pharmacopoeia.).

[2] = Stability of Form CSI on storage (XRPD form, chemical purity)
Description: The parameters for purity tests of the present disclosure are as follows: [table] Approximately 5 mg of solid samples of Form CSI were stored under different conditions of 25° C./60% RH, 40° C./75% RH and 60° C./75% RH. Chemical purity and crystalline form were checked by HPLC and XRPD, respectively.

[3] = Physical stability on grinding (XRPD); details: ground manually for 5 min in a mortar
Description: Form CSI and WO2014014835 Form A was ground manually for 5 min in a mortar.

[4] = Kinetic solubility in SGF, FaSSIF, FeSSIF and water
Excerpt: The parameters for kinetic solubility tests of the present disclosure are as follows:
When solubility test is used to predict the in vivo performance of a drug, it is critical to simulate in vivo conditions as closely as possible. For oral medication, Simulated Gastric Fluid (SGF), Fasted-State Simulated Intestinal Fluid (FaSSIF), Fed-State Simulated Intestinal Fluid (FeSSIF) can be used to simulate the condition in vivo and predict the effects of feeding, thus solubility in such mediums is closer to that in vivo.
20 mg of Form CSI and 20 mg of WO2014014835 Form A were suspended into 4.0 mL of SGF, 4.0 mL of FaSSIF, 4.0 mL of FeSSIF and 4.0 mL of water to get saturated solutions. After equilibrated for 1 h, 4 h, 8 h and 24 h, the concentrations (μg/mL) of Compound I of the saturated solutions were measured by UPLC.

[5] = Intrinsic dissolution (IDR); details: for IDR: slope of data within 5-120 minutes
Description: The parameters for intrinsic dissolution tests in the present disclosure are as follows:
Approximately 100 mg of Form CSI or WO2014014835 Form A was added into the cavity of the die, and then compressed at 10 kN and held for 0.5 minute to obtain a tablet having a surface area of 0.5 cm^2. The die with the tablet still embedded was put into a dissolution apparatus to test the intrinsic dissolution. The slope (in μg/min) of the regression line was calculated according to the data within 5-120 minutes. IDR (in μg/min/cm^2) was further calculated according to the slope.

[6] = Crystalline form stability in the formulation process (XRPD); details: capsule formulation of Table 17, process of Table 18
Excerpt: Form CSI of the present disclosure and WO2014014835 Form A were made into capsules using the formulation in Table 17 and the preparation process in Table 18. The XRPD patterns were collected before and after the formulation process. […] [table] [table]

[7] = Compressibility (tablet hardness, tensile strength); details: 80 mg, compressed at 10 kN
Description: ENERPAC manual tablet press was used for compression. 80 mg of Form CSI and WO2014014835 Form A were weighed and added into the dies of a φ6 mm round tooling, compressed at 10 kN, then stored at room temperature for 24 h until complete elastic recovery. Hardness (H) was tested with an intelligent tablet hardness tester. Diameter (D) and thickness (L) were tested with a caliper. Tensile strength of the powder was calculated with the following formula: T=2H/πDL*9.8. Under a certain force, the greater the tensile strength, the better the compressibility.

[8] = 25° C./60% RH, sealed, 3 months
[9] = 40° C./75% RH, sealed, 3 months

Crystalline form after tableting (XRPD) ([1]; pressure 10 KN): Form CSI
Crystalline form after tableting (XRPD) ([1]; pressure 15 KN): Form CSI
Weight gain under 80% RH (Hygroscopicity by DVS; DVS, 25° C.): 0.12%
Chemical purity during storage ([2]; 25° C./60% RH): above 99.5%
Time the drug substance kept stable (crystalline state unchanged) ([2]; 25° C./60% RH): at least three months
Crystalline form (XRPD) after storage ([2]; 25° C./60% RH, open, 3 months): Form CSI
Purity after storage ([2]; 25° C./60% RH, open, 3 months): 99.68%
Crystalline form (XRPD) after storage [2, 8]: Form CSI
Purity after storage [2, 8]: 99.65%
Time the drug substance kept stable (crystalline state unchanged) ([2]; 40° C./75% RH): at least three months
Chemical purity during storage ([2]; 40° C./75% RH and 60° C./75% RH): above 99.5%
Crystalline form (XRPD) after storage ([2]; 40° C./75% RH, open, 3 months): Form CSI
Purity after storage ([2]; 40° C./75% RH, open, 3 months): 99.68%
Crystalline form (XRPD) after storage [2, 9]: Form CSI
Purity after storage [2, 9]: 99.66%
Time the drug substance kept stable (crystalline state unchanged) ([2]; 60° C./75% RH): at least one month
Crystalline form (XRPD) after storage ([2]; 60° C./75% RH, open, 1 month): Form CSI
Purity after storage ([2]; 60° C./75% RH, open, 1 month): 99.63%
Crystalline form (XRPD) after storage ([2]; 60° C./75% RH, sealed, 1 month): Form CSI
Purity after storage ([2]; 60° C./75% RH, sealed, 1 month): 99.68%
Crystalline form (XRPD) ([2]; Initial): Form CSI
Purity ([2]; Initial): 99.71%
Crystalline form and crystallinity after grinding (XRPD) [3]: remain unchanged after grinding
Kinetic solubility (concentration of Compound I in saturated solution) ([4]; FaSSIF, 1 hour): 617.0 µg/mL
Kinetic solubility (concentration of Compound I in saturated solution) ([4]; FaSSIF, 4 hours): 934.6 µg/mL
Kinetic solubility (concentration of Compound I in saturated solution) ([4]; FaSSIF, 8 hours): 1043.5 µg/mL
Kinetic solubility (concentration of Compound I in saturated solution) ([4]; FaSSIF, 24 hours): 1109.6 µg/mL
Kinetic solubility (concentration of Compound I in saturated solution) ([4]; FeSSIF, 1 hour): 180.4 µg/mL
Kinetic solubility (concentration of Compound I in saturated solution) ([4]; FeSSIF, 4 hours): 270.3 µg/mL
Kinetic solubility (concentration of Compound I in saturated solution) ([4]; FeSSIF, 8 hours): 295.3 µg/mL
Kinetic solubility (concentration of Compound I in saturated solution) ([4]; FeSSIF, 24 hours): 314.4 µg/mL
Kinetic solubility (concentration of Compound I in saturated solution) ([4]; SGF, 1 hour): 22.7 µg/mL
Kinetic solubility (concentration of Compound I in saturated solution) ([4]; SGF, 4 hours): 24.0 µg/mL
Kinetic solubility (concentration of Compound I in saturated solution) ([4]; SGF, 8 hours): 24.2 µg/mL
Kinetic solubility (concentration of Compound I in saturated solution) ([4]; SGF, 24 hours): 24.0 µg/mL
Kinetic solubility (concentration of Compound I in saturated solution) ([4]; water, 1 hour): 18.2 µg/mL
Kinetic solubility (concentration of Compound I in saturated solution) ([4]; water, 4 hours): 21.9 µg/mL
Kinetic solubility (concentration of Compound I in saturated solution) ([4]; water, 8 hours): 34.1 µg/mL
Kinetic solubility (concentration of Compound I in saturated solution) ([4]; water, 24 hours): 25.7 µg/mL
Increase of dissolution rate compared with Form A ([5]; pH 4.5 PBS): 41%
Cumulative dissolution ([5]; pH4.5 PBS, 5 min, 37° C., 0.5 cm^2 tablet): 36.8 µg
Cumulative dissolution ([5]; pH4.5 PBS, 10 min): 35.6 µg
Cumulative dissolution ([5]; pH4.5 PBS, 15 min): 39.8 µg
Cumulative dissolution ([5]; pH4.5 PBS, 20 min): 50.0 µg
Cumulative dissolution ([5]; pH4.5 PBS, 25 min): 50.4 µg
Cumulative dissolution ([5]; pH4.5 PBS, 30 min): 56.0 µg
Cumulative dissolution ([5]; pH4.5 PBS, 45 min): 70.7 µg
Cumulative dissolution ([5]; pH4.5 PBS, 60 min): 83.0 µg
Cumulative dissolution ([5]; pH4.5 PBS, 90 min): 114.0 µg
Cumulative dissolution ([5]; pH4.5 PBS, 120 min): 142.3 µg
IDR ([5]; pH4.5 PBS): 1.8928 μg/min/cm^2
Cumulative dissolution ([5]; pH6.8 PBS, 5 min, 37° C., 0.5 cm^2 tablet): 440.4 µg
Cumulative dissolution ([5]; pH6.8 PBS, 10 min): 916.0 µg
Cumulative dissolution ([5]; pH6.8 PBS, 15 min): 1345.9 µg
Cumulative dissolution ([5]; pH6.8 PBS, 20 min): 1758.2 µg
Cumulative dissolution ([5]; pH6.8 PBS, 25 min): 2152.9 µg
Cumulative dissolution ([5]; pH6.8 PBS, 30 min): 2521.4 µg
Cumulative dissolution ([5]; pH6.8 PBS, 45 min): 3392.2 µg
Cumulative dissolution ([5]; pH6.8 PBS, 60 min): 4309.7 µg
Cumulative dissolution ([5]; pH6.8 PBS, 90 min): 5967.2 µg
Cumulative dissolution ([5]; pH6.8 PBS, 120 min): 7448.5 µg
IDR ([5]; pH6.8 PBS): 120.3256 μg/min/cm^2
Crystalline form before and after the formulation process (XRPD) [6]: remains stable
Tensile strength ([7]; T=2H/πDL*9.8): 1.22 MPa
Hardness ([7]; φ6 mm round tooling, after 24 h): 2.47 kgf
Compound: Cc1nc(C(=O)NCC(=O)O)c(O)c2ccc(Oc3ccccc3)cc12 [Form CSI, [(4-hydroxy-1-methyl-7-phenoxy-isoquinoline-3-carbonyl)-amino]-acetic acid]
Hygroscopicity class (Hygroscopicity by DVS; weight gain under 80% RH): non-hygroscopic or almost non-hygroscopic; also recorded: non hygroscopic or almost non-hygroscopic
